Data on 20 molecules can be found in patent publication EP4745134A1 (Jiangsu Yahong Meditech Co., Ltd., priority 2023, dated 2025).

Assay [1] concerns HCT116 MTAP KO cells. As to the kind of experiment: Inhibitory activity against cell proliferation (CellTiter Glo, 6 days), HCT116 MTAP KO. In kind it is cell-based. The conditions noted are these: for IC50: Homo sapiens, HCT-116, 144 h; for Selectivity HCT 116-WT/ HCT116 MTAP KO: ratio of IC50 HCT116-WT / HCT116 MTAP KO. A digest of the protocol: (§1)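 HCT116 wild-type or MTAP-knockout cells (250/well, McCoy's 5A + 10% FBS) treated after overnight culture with 8-point 4-fold dilutions from 10000 nM for 6 days at 37 °C. Viability read by CellTiter Glo luminescence on day 7; IC50 calculated against DMSO controls.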
A general note: In ATP-based viability assays light output follows the ATP content of the culture.

In assay [2] the test system is HCT116-WT cells. As to the kind of experiment: Inhibitory activity against cell proliferation (CellTiter Glo, 6 days), HCT116-WT. In kind it is cell-based. The conditions noted are these: 144 h. A digest of the protocol:
as §1

Assay [3] has as its target PRMT5-MTA (Homo sapiens, UniProt O14744). Nature of the assay: Enzymatic inhibitory activity against PRMT5-MTA (AlphaScreen). The class given is biochemical. A digest of the protocol:
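PRMT5/[…] (1 nM) was preincubated for 30 min at room temperature with 1 µM […] and 2.5 µM SAM, then exposed to compound (10-point, 3-fold from 1000 nM) for 15 min at 23 °C. Histone H4 substrate (5 nM) was added and reacted for 45 min at 23 °C. Symmetric dimethyl-R3 H4 was detected by AlphaScreen and IC50 calculated.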
In general terms: In Alpha technology, singlet oxygen from a donor bead excites a nearby acceptor bead.

The mark [4] stands for this setting: HCT116 MTAP KO cells, 6 days, CellTiter Glo, read-out: HCT116 MTAP KO IC50.
Setting [5] is: HCT116-WT cells, 6 days, CellTiter Glo, read-out: HCT116-WT IC50.

Read-outs that look alike come from different tables or passages of the source.

What is called IC50 is the concentration that inhibits the measured activity by half.

PRMT5-MTA, sequence (O14744 whole entry): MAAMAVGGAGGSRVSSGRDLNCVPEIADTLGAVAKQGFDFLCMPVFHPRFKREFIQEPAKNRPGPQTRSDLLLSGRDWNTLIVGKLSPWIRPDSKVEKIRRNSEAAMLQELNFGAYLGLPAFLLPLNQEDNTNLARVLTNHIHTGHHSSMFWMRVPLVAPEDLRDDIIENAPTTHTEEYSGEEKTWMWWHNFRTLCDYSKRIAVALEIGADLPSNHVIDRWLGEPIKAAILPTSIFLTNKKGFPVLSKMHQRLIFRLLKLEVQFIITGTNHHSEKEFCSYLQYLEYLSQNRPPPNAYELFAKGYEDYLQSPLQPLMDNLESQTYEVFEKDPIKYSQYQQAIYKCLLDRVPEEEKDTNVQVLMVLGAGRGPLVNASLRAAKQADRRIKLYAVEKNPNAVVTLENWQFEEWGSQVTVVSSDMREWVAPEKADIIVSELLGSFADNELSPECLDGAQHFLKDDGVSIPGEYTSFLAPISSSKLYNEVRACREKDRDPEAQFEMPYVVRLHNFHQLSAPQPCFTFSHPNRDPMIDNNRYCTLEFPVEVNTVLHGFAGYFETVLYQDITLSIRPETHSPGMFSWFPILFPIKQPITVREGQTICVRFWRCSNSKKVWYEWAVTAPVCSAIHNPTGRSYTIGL
PRMT5-MTA, sequence (Q9BQA1 whole entry partner): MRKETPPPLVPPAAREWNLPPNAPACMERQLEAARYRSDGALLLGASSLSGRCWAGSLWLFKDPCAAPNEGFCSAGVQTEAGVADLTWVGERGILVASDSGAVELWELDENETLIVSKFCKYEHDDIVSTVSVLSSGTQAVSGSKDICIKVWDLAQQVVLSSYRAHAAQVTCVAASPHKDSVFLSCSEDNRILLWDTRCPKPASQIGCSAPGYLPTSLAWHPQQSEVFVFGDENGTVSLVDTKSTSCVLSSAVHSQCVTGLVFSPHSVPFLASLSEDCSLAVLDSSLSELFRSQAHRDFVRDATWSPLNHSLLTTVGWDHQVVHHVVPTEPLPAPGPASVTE

Turning to `Cn1ncc2c(N)nc3cc(Cl)c(C(=O)N4CC(F)(F)CN4c4ccccc4F)cc3c21` [Example 457, (4-amino-7-chloro-1-methyl-1H-pyrazolo [4,3-c]quinolin-8-yl)(4,4-difluoro-2-(2-fluorophenyl)pyrazolidin-1-yl)methanone], the IC50 in assay [1] (setting [4]) was determined as 12 nM; in assay [2] (setting [5]), 123 nM; in assay [3] (read-out: IC50), 0.0075 µM. Moreover, the “Selectivity HCT 116-WT/ HCT116 MTAP KO” value in assay [1] is 10.25.
Taken in the same sequence, the figures for `Cc1ncsc1-c1ccc(CN(C(=O)c2ccc3nc(N)c(Br)cc3c2)N(c2ncccn2)C2CC2)nc1` [Example 171, 2-amino-3-bromo-N'-cyclopropyl-N-((5-(4-methylthiazol-5-yl)pyridin-2-yl)methyl)-N'-(pyrimidin-2-yl)quinoline-6-carbohydrazide] were 43 nM, 622 nM, 0.0052 µM and 14.47.
On to `Cc1cc2cc(C(=O)N(Cc3ccc(-c4cncs4)cn3)N(c3ncccn3)C3CC3)ccc2nc1N` [Example 215, 2-amino-N'-cyclopropyl-3-methyl-N'-(pyrimidin-2-yl)-N-((5-(thiazol-5-yl)pyridin-2-yl)methyl)quinoline-6-carbohydrazide], for which the IC50 in assay [1] (setting [4]) amounted to 7.1 nM; in assay [2] (setting [5]) it was 178 nM; in assay [3] (read-out: IC50), 0.0053 µM. For the same molecule, the “Selectivity HCT 116-WT/ HCT116 MTAP KO” value in assay [1] was 25.07.
Taken in the same sequence, the figures for `[2H]c1nc(C)c(-c2ccc(CN(C(=O)c3ccc4nc(N)c(C)cc4c3)N(c3ncccn3)C3CC3)nc2)s1` [Example 238, 2-amino-N'-cyclopropyl-3-methyl-N-((5-(4-methylthiazol-5-yl-2d)pyridin-2-yl)methyl)-N'-(pyrimidin-2-yl)quinoline-6-carbohydrazide] were 5.1 nM, 112 nM, 0.0057 µM and 21.96.
On to `CCOC1CN(C(=O)c2cc3c(cc2C)nc(N)c2cnn(C)c23)N(c2ncccc2F)C1` (stereo not shown) [Example 453, (4-amino-1,7-dimethyl-1H-pyrazolo[4,3-c]quinolin-8-yl)(4-ethoxy-2-(3-fluoropyridin-2-yl)pyrazolidin-1-yl)methanone], for which the half-maximal inhibitory concentration (IC50) was 23 nM in assay [1] (setting [4]), 523 nM in assay [2] (setting [5]) and 0.0052 µM in assay [3] (read-out: IC50). Besides, the “Selectivity HCT 116-WT/ HCT116 MTAP KO” value in assay [1] came out at 22.74.
The like results for `COC1CN(C(=O)c2cc3c(cc2Cl)nc(N)c2cnn(C)c23)N(c2cccc(F)n2)C1` (stereo not shown) [Example 448, (4-amino-7-chloro-1-methyl-1H-pyrazolo [4,3-c]quinolin-8-yl)(2-(6-fluoropyridin-2-yl)-4-methoxypyrazolidin-1-yl)methanone] were, in that order, 27 nM, 586 nM, 0.0051 µM and 21.70.
Turning to `Cc1cc2cc(C(=O)N(Cc3ccc(C(F)(F)F)cn3)N(C)c3ncc4c(ccn4C)n3)ccc2nc1N` [Compound 127, 2-amino-N',3-dimethyl-N'-(5-methyl-5H-pyrrolo[3,2-d]pyrimidin-2-yl)-N-((5-(trifluoromethyl)pyridin-2-yl)methyl)quinoline-6-carbohydrazide], the figures for the IC50 in assay [1] (setting [4]), in assay [2] (setting [5]) and in assay [3] (read-out: IC50) were 115 nM, 1900 nM and 0.0049 µM, respectively. For the same molecule, the “Selectivity HCT 116-WT/ HCT116 MTAP KO” value in assay [1] is reported as 16.55.
Taken in the same sequence, the figures for `CCN(c1ncccn1)N(Cc1ccc(C(F)(F)F)cn1)C(=O)c1ccc2nc(N)c(C)cc2c1` [Example 6, 2-amino-N'-ethyl-3-methyl-N'-(pyrimidin-2-yl)-N-((5-(trifluoromethyl)pyridin-2-yl)methyl)quinoline-6-carbohydrazide] were 95 nM, 1380 nM, 0.0015 µM and 14.55.
With `Cc1cc2nc(N)c3cnn(C)c3c2cc1C(=O)N(C)N1CCc2ccccc21` [Example 279], the IC50 in assay [1] (read-out: HCT116 MTAP KO IC50 (nM)) was 284 nM; in assay [2] (read-out: HCT116-WT IC50 (nM)) it was greater than 10000 nM; in assay [3] it was 0.0043 µM.
With `CCC1(F)CN(C(=O)c2cc3c(cc2C)nc(N)c2cnn(C)c23)N(c2ncccc2F)C1` (stereo not shown) [Example 423, (4-amino-1,7-dimethyl-1H-pyrazolo[4,3-c]quinolin-8-yl)(4-ethyl-4-fluoro-2-(3-fluoropyridin-2-yl)pyrazolidin-1-yl)methanone], the IC50 in assay [1] (setting [4]) came out at 25 nM; in assay [2] (setting [5]), 682 nM; in assay [3] (read-out: IC50) it was 0.0067 µM. Besides, the “Selectivity HCT 116-WT/ HCT116 MTAP KO” value in assay [1] was determined as 27.28.
Taken in the same sequence, the figures for `Cc1cc2cc(C(=O)N(Cc3cc(C(F)(F)F)ccn3)N(C)c3ncccn3)ccc2nc1N` [Example 61, 2-amino-N',3-dimethyl-N'-(pyrimidin-2-yl)-N-((4-(trifluoromethyl)pyridin-2-yl)methyl)quinoline-6-carbohydrazide] were 126 nM, 2390 nM, 0.0024 µM and 18.95.
The like results for `COC1CN(C(=O)c2cc3c(cc2Cl)nc(N)c2cnn(C)c23)N(c2ncc(F)cc2F)C1` (stereo not shown) [Example 442, (4-amino-7-chloro-1-methyl-1H-pyrazolo [4,3-c]quinolin-8-yl)(2-(3,5-2 fluoropyridin-2-yl)-4-methoxypyrazolidin-1-yl)methanone] were, in that order, 42 nM, 634 nM, 0.0046 µM and 15.10.
`Cc1cc2nc(N)c3cnn(C)c3c2cc1C(=O)N1CCCCN1c1ccc(C(F)(F)F)cn1` [Example 343, (4-amino-1,7-dimethyl-1H-pyrazolo[4,3-c]quinolin-8-yl)(2-(5-(trifluoromethyl)pyridin-2-yl)tetrahydropyridazin-1 (2H)-yl) methanone]: the IC50 in assay [1] (setting [4]) came to 212 nM; in assay [2] (setting [5]), 4860 nM; in assay [3] (read-out: IC50), 0.0039 µM. In assay [1], the “Selectivity HCT 116-WT/ HCT116 MTAP KO” value worked out at 22.90.
The like results for `Cc1cc2nc(N)c3cnn(C)c3c2cc1C(=O)N1CC(C)CN1c1ncccc1F` (stereo not shown) [Example 328, (4-amino-1,7-dimethyl-1H-pyrazolo[4,3-c]quinolin-8-yl)(2-(3-fluoropyridin-2-yl)-4-methylpyrazolidin-1-yl)methanone] were, in that order, 38 nM, 2340 nM, 0.0065 µM and 61.63.
Taken in the same sequence, the figures for `COC(C)(C)C#Cc1cnc(N2CC(C)CN2C(=O)c2cc3c(cc2C)nc(N)c2cnn(C)c23)c(F)c1` (stereo not shown) [Example 491, (4-amino-1,7-dimethyl-1H-pyrazolo[4,3-c]quinolin-8-yl)(2-(3-fluoro-5-(3-methoxy-3-methylbut-1-yn-1-yl)pyridin-2-yl)-4-methylpyrazolidin-1-yl)methanone] were 189 nM, 2230 nM, 0.0086 µM and 11.81.
On to `C=C1CN(C(=O)c2cc3c(cc2Cl)nc(N)c2cnn(C)c23)N(c2ccccc2F)C1` [Example 431, (4-amino-7-chloro-1-methyl-1H-pyrazolo [4,3-c]quinolin-8-yl)(2-(2-fluorophenyl)-4-methylenepyrazolidin-1-yl)methanone], for which the values for the IC50 in assay [1] (setting [4]), in assay [2] (setting [5]) and in assay [3] (read-out: IC50) were 10 nM, 248 nM and 0.0054 µM, respectively. The “Selectivity HCT 116-WT/ HCT116 MTAP KO” value in assay [1] came out at 24.80.
The like results for `Cc1cc2cc(C(=O)N(Cc3ccc(C(F)(F)F)cn3)N(C)c3nccc4cccnc34)ccc2nc1N` [Example 91, 2-amino-N',3-dimethyl-N'-(1,7-naphthyridin-8-yl)-N-((5-(trifluoromethyl)pyridin-2-yl)methyl)quinoline-6-carbohydrazide] were, in that order, 43 nM, 1700 nM, 0.0029 µM and 39.42.
Taken in the same sequence, the figures for `Cc1cc2cc(C(=O)N(Cc3ccc(C(F)(F)F)cn3)N(C)c3ncc(OC(F)F)cn3)ccc2nc1N` [Example 57, 2-amino-N'-(5-(difluoromethoxy)pyrimidin-2-yl)-N',3-dimethyl-N-((5-(trifluoromethyl)pyridin-2-yl)methyl)quinoline-6-carbohydrazide] were 490 nM, 5640 nM, 0.0019 µM and 11.51.
Taken in the same sequence, the figures for `Cn1ncc2c(N)nc3cc(Cl)c(C(=O)N4CC(F)(F)CN4c4cccc(F)n4)cc3c21` [Example 462, (4-amino-7-chloro-1-methyl-1H-pyrazolo [4,3-c]quinolin-8-yl)(4,4-difluoro-2-(6-fluoropyridin-2-yl)pyrazolidin-1-yl)methanone] were 30 nM, 484 nM, 0.006 µM and 16.13.
As to `Cc1cc2cc(C(=O)N(Cc3ccc(-c4ccc(N5CCN(C)CC5)nc4)cn3)N(C)c3ncccn3)ccc2nc1N` [Example 140, 2-amino-N',3-dimethyl-N-((6'-(4-methylpiperazin-1-yl)-[3,3'-bipyridine]-6-yl)methyl)-N'-(pyrimidin-2-yl)quinoline-6-carbohydrazide], the figures for the IC50 in assay [1] (setting [4]), in assay [2] (setting [5]) and in assay [3] (read-out: IC50) were 46 nM, 2060 nM and 0.0016 µM, respectively. Moreover, the “Selectivity HCT 116-WT/ HCT116 MTAP KO” value in assay [1] stood at 44.67.
